Data published in patent US20070027144A1, “Novel use of cannabinoid receptor agonist” (SHIONOGI & CO., LTD., priority 2003, published 2007).

Experiments:
[1] = tested on: BN rats; experiment: Antigen-induced bronchial hyperresponsiveness in BN rats (chronic model); format: in vivo; details: oral for 8 days
Procedure: (§1) Antigen-induced bronchial hyperresponsiveness in BN rats: Brown Norway (BN) rats (Charles River Japan) were actively sensitized by the intraperitoneal injection of 1 mL mixture containing aluminum hydroxide gel (1 mg) and ovalbumin (0.1 mg, OVA). Ten days later, antigen challenge was performed by the inhalation of an aerosolized 1% OVA solution for 30 min using an ultrasonic nebulizer. ACh was intravenously injected to rats 24 h after antigen challenge under sodium pentobarbital anesthesia (80 mg/kg, i.p.) by increasing doses of ACh every 5 min, then bronchoconstrictor response observed immediately after each ACh injection was measured by the method of Konzett & Rössler with some modifications. Briefly, trachea of rats was incised and a cannula was attached to lung side. An artificial respirator (SN-480-7, Shinano) was connected to the cannula, and then a fixed amount of air (tidal volume: 3 mL, ventilation frequency: 60 times/min) continuously insufflated to maintain respiration. The insufflation pressure overflowed from inhalation tube was monitored by a pressure transducer (TP-400T, Nihon Kohden) and recorded on a recorder (WT-645G, Nihon Kohden) through a carrier amplifier (AP-601G, Nihon Kohden). Test compounds were administered orally once 1 h before antigen challenge. The area under the curve (AUC) calculated from dose-response curve for ACh was compared between vehicle-treated control group and test compound-treated group, and then statistical significance was analyzed concerning inhibitory effect on bronchial hyperresponsiveness.
(§2) Antigen-induced bronchial hyperresponsiveness in BN rats: BN rats were actively sensitized by the intraperitoneal injection of a mixture containing aluminum hydroxide gel and ovalbumin. Twelve days later, antigen challenge was performed by the inhalation of an aerosolized 1% OVA solution or physiological saline for 30 min using an ultrasonic nebulizer (NE-U12, Omron). […] Inhibitory effect on bronchial hyperresponsiveness was evaluated 24 h after last antigen challenge by the method described in the section of Experimental Example 1.

[2] = tested on: guinea pigs; experiment: Antigen-induced bronchial hyperresponsiveness in guinea pigs (acute model); format: in vivo; details: oral 1 h before antigen challenge
Procedure: (§3) Antigen-induced bronchial hyperresponsiveness in guinea pigs: Guinea pigs (Charles River Japan) held in an exposure chamber were actively sensitized by the inhalation of an aerosolized 1% OVA solution for 10 min using an ultrasonic nebulizer (NE-U12, Omron) twice with an interval of 1 week. One week later, antigen challenge was performed by inhalation of an aerosolized 1% OVA generated by an ultrasonic nebulizer for 5 min. Test compounds were administered orally 1 h before antigen challenge. In addition, guinea pigs were treated with diphenhydramine (10 mg/kg, i.p.), an antihistamine, to protect the animals from anaphylactic death 10 min before antigen challenge. ACh was intravenously injected to guinea pigs 24 h after antigen challenge under urethane anesthesia (1.4 g/kg, i.p.) by increasing doses of ACh every 5 min, then bronchoconstrictor response observed immediately after each ACh injection was measured by the method of Konzett & Rössler with some modifications. Briefly, trachea of guinea pigs was incised and a cannula was attached to the lung side. An artificial respirator (SN-480-7, Shinano) was connected to the cannula, and then a fixed amount of air (tidal volume: 4 mL, ventilation frequency: 60 times/min) continuously insufflated to maintain respiration. The insufflation pressure overflowed from inhalation tube was monitored by a pressure transducer (TP-400T, Nihon Kohden) and recorded on a recorder (WT-645G, Nihon Kohden) through a carrier amplifier (AP-601G, Nihon Kohden). The area under the curve (AUC) calculated from dose-response curve for ACh was compared between vehicle-treated control group and test compound-treated group, and then statistical significance was analyzed concerning inhibitory effect on bronchial hyperresponsiveness.

[3] = tested on: BN rats; experiment: Antigen-induced mucus secretion in BN rats (acute model); format: in vivo, Brown Norway (BN) rats; details: oral, 10 mg/kg, P<0.01
Procedure: as §1, with “An artificial respirator (SN-480-7, Shinano) was connected to the cannula, and then a fixed amount of air (tidal volume: 3 mL, ventilation frequency: 60 times/min) continuously insufflated to maintain respiration.” left out, “Test compounds were administered orally once 1 h before antigen challenge.” left out, “hyperresponsiveness. […]” for “hyperresponsiveness.”

[4] = tested on: BN rats; experiment: Antigen-induced bronchial hyperresponsiveness in BN rats (acute model); format: in vivo, Brown Norway (BN) rats; details: oral once 1 h before antigen challenge, 10 mg/kg, P<0.01
Procedure: as §1, with “An artificial respirator (SN-480-7, Shinano) was connected to the cannula, and then a fixed amount of air (tidal volume: 3 mL, ventilation frequency: 60 times/min) continuously insufflated to maintain respiration.” left out, “Test compounds were administered orally once 1 h before antigen challenge.” left out

[5] = tested on: BN rats; experiment: Antigen-induced airway inflammatory cell infiltration in BN rats (acute model); format: in vivo, Brown Norway (BN) rats; details: oral, P<0.01
Procedure: as §1, with “An artificial respirator (SN-480-7, Shinano) was connected to the cannula, and then a fixed amount of air (tidal volume: 3 mL, ventilation frequency: 60 times/min) continuously insufflated to maintain respiration.” left out, “Test compounds were administered orally once 1 h before antigen challenge.” left out, “hyperresponsiveness. […]” for “hyperresponsiveness.”

[6] = tested on: guinea pigs; experiment: Bronchodilating effect in guinea pigs (ACh-induced bronchoconstriction); format: in vivo; details: oral 1 h before ACh injection, 10 mg/kg, P<0.01
Procedure: Under urethane anesthesia (1.4 g/kg, i.p.), ACh was intravenously injected to guinea pigs by increasing doses of ACh every 5 min, then bronchoconstrictor response observed immediately after each ACh injection was measured by the method of Konzett & Rössler with some modifications. Briefly, trachea of guinea pigs was incised and a cannula was attached to the lung side. An artificial respirator (SN-480-7, Shinano) was connected to the cannula, and then a fixed amount of air (tidal volume: 4 mL, ventilation frequency: 60 times/min) continuously insufflated to maintain respiration. The insufflation pressure overflowed from inhalation tube was monitored by a pressure transducer (TP-400T, Nihon Kohden) and recorded on a recorder (WT-645G, Nihon Kohden) through a carrier amplifier (AP-601G, Nihon Kohden). Test compounds were administered orally 1 h before ACh injection, then the effect on the dose-response curve of ACh was examined. Statistical significance was analyzed concerning broncohdilating effect in guinea pigs.

[7] = tested on: guinea pigs; experiment: Antigen-induced airway inflammatory cell infiltration in guinea pigs (acute model); format: in vivo; details: oral
Procedure: as §3, with “An artificial respirator (SN-480-7, Shinano) was connected to the cannula, and then a fixed amount of air (tidal volume: 4 mL, ventilation frequency: 60 times/min) continuously insufflated to maintain respiration.” left out
(§4) Antigen-induced airway inflammatory cell infiltration in guinea pigs: After finishing experiment mentioned above, the lungs are washed 3 times with 10 mL of physiological saline through tracheal cannula using injection syringe. Then the cell number in the washing was determined. […] Differential cell counts were performed after May-Grünwald-Giemsa staining, and then statistical significance was analyzed concerning inhibitory effect on airway inflammatory cell infiltration.

[8] = tested on: guinea pigs; experiment: Antigen-induced mucus secretion in guinea pigs (chronic model); format: in vivo; details: oral for 8 days, 30 mg/kg, P<0.01
Procedure: (§5) Antigen-induced bronchial hyperresponsiveness in guinea pigs: Guinea pigs held in an exposure chamber were actively sensitized by the inhalation of an aerosolized 1% OVA solution for 10 min using an ultrasonic nebulizer (NE-U12, Omron) twice with an interval of 1 week. One week and 2 weeks later, antigen challenge was performed twice by inhalation of an aerosolized 1% OVA generated by an ultrasonic nebulizer for 5 min. Test compounds were administered orally for 8 days from the day of first antigen challenge. On the day of each antigen challenge, test compounds were administered 1 h before challenge. […] Inhibitory effect on bronchial hyperresponsiveness was evaluated 24 h after last antigen challenge by the method described in the section of Experimental Example 7. The area under the curve (AUC) calculated from dose-response curve for ACh was compared between vehicle-treated control group and test compound-treated group, and then statistical significance was analyzed concerning inhibitory effect on bronchial hyperresponsiveness.
Antigen-induced mucus secretion in guinea pigs: After measurement of bronchial hyperresponsiveness, the lungs are washed 3 times with 10 mL of physiological saline through tracheal cannula using injection syringe, and then the washing was centrifuged. […] Statistical significance was analyzed concerning inhibitory effect on mucus secretion.

[9] = tested on: guinea pigs; experiment: Antigen-induced airway inflammatory cell infiltration in guinea pigs (chronic model); format: in vivo; details: oral for 8 days, 30 mg/kg, P<0.01
Procedure: as §5
Antigen-induced airway inflammatory cell infiltration in guinea pigs: After finishing experiment mentioned above, the lungs are washed 3 times with 10 mL of physiological saline through tracheal cannula using injection syringe. Then the cell number in the washing was determined. […]

[10] = tested on: BN rats; experiment: Antigen-induced airway inflammatory cell infiltration in BN rats (chronic model); format: in vivo; details: oral for 8 days, 100 mg/kg, P<0.01
Procedure: as §2, with “Omron). To establish chronic bronchial hyerreactivity model, this procedure was repeated 3 times with 1-week intervals. Test compounds were administered orally for 8 days from the day of third antigen challenge. On the day of third antigen challenge, test compounds were administered 1 h before challenge.” for “Omron).”
as §4, with “BN rats:” for “guinea pigs:”, “were” for “are”, “5” for “10”, “infiltration as in the section of Experimental Example 2.” for “infiltration.”

[11] = tested on: guinea pigs; experiment: Antigen-induced bronchial hyperresponsiveness in guinea pigs (chronic model); format: in vivo; details: oral for 8 days, 30 mg/kg, P<0.05
Procedure: as §3, with “An artificial respirator (SN-480-7, Shinano) was connected to the cannula, and then a fixed amount of air (tidal volume: 4 mL, ventilation frequency: 60 times/min) continuously insufflated to maintain respiration.” left out, “The area under the curve (AUC) calculated from dose-response curve for ACh was compared between vehicle-treated control group and test compound-treated group, and then statistical significance was analyzed concerning inhibitory effect on bronchial hyperresponsiveness.” left out

CCCCn1c2c(cc(C(=O)NC(C)(C)c3ccccc3)c1=O)CCCCCC2 [Compound 4-320]
significant effect: inhibitory effect on bronchial hyperresponsiveness ([1]; 3 mg/kg, P<0.01) | inhibitory effect on bronchial hyperresponsiveness (AUC of ACh dose-response curve vs vehicle) ([2]; 1 mg/kg, P<0.01) | inhibitory effect on bronchial hyperresponsiveness (AUC of ACh dose-response curve vs vehicle) ([2]; 10 mg/kg, P<0.05) | inhibitory effect on mucus secretion (mucin levels in lung washing) [3] | inhibitory effect on bronchial hyperresponsiveness (AUC of ACh dose-response curve vs vehicle) [4] | inhibitory effect on airway inflammatory cell infiltration ([5]; 1 mg/kg) | inhibitory effect on airway inflammatory cell infiltration ([5]; 10 mg/kg) | bronchodilating effect (effect on the dose-response curve of ACh) [6] | inhibitory effect on airway inflammatory cell infiltration ([7]; 1 mg/kg, P<0.05) | inhibitory effect on airway inflammatory cell infiltration ([7]; 10 mg/kg, P<0.01)

CSC(=S)N1CC2(CCCCC2)CS/C1=N\c1ccc(OC(F)(F)F)cc1 [Compound I-12]
significant effect: inhibitory effect on mucus secretion (mucin levels in lung washing) [8] | inhibitory effect on bronchial hyperresponsiveness ([1]; 30 mg/kg, P<0.01) | inhibitory effect on bronchial hyperresponsiveness ([1]; 100 mg/kg, P<0.05) | inhibitory effect on bronchial hyperresponsiveness (AUC of ACh dose-response curve vs vehicle) ([2]; 10 mg/kg, P<0.05) | inhibitory effect on airway inflammatory cell infiltration [9] | inhibitory effect on airway inflammatory cell infiltration [10] | inhibitory effect on airway inflammatory cell infiltration ([7]; 10 mg/kg, P<0.05) | inhibitory effect on bronchial hyperresponsiveness (AUC of ACh dose-response curve vs vehicle) [11]
